Test results published in patent US20120202287A1, “Stem Cell Culture Methods” (priority 2009, published 2012).
“Also recorded” adds a separate entry of the source.

Legend:
Assay type in all cases: cell-based, human
[1] = system: SA121 hESCs; assay: General (monolayer) differentiation on matrigel in defined media, qRT-PCR of stem cell and differentiation markers after 14 days; parameters: key to Full EHNA effect: those which maintained at least 50% of the level of NANOG-expression in comparison to EHNA and those that inhibited the expression of PAX6 to 50% or less than the value untreated controls were considered to have an EHNA-like effect; conditions: 14 days, qRT-PCR
Description: In order to ascertain the efficacy of the compounds of the present invention, each compound was tested to determine whether it can maintain the stem cell marker NANOG and/or block the differentiation marker PAX6 in the face of differentiating conditions in a manner similar to EHNA. Cells enzymatically passaged onto matrigel-coated dishes and grown for 2 weeks in defined media with or without (control) compound addition were analysed by qRT-PCR to determine the level of NANOG and PAX6 expression.
For general differentiation experiments cells were passaged with trypsin onto matrigel coated twelve-well dishes in the fully supportive media (see above). The media was then changed to defined media 24 h later and any experimental component was first added at this point. The media and experimental supplement were changed daily.
Cells were routinely harvested for qRT-PCR analysis 14 days after the first addition of the experimental compound.
Total RNA was extracted using QIAGEN RNeasy kits (Qiagen Inc, Valencia, Calif., http://www.qiagen.com) and DNaseI treatment was performed using Turbo DNA-Free (Ambion). The absence of genomic DNA was confirmed by quantitative PCR (qPCR) (see below) using glyceraldehyde-3-phosphate dehydrogenase (GAPDH) Taqman primers and probe (MWG). cDNA was synthesized with 2 μg total RNA in 20 μl using Superscript II according to manufacturers' instructions ((Carlsbad, Calif., http://www.Invitrogen.com)). For qPCR, cDNAs were diluted 1 in 60 and 5 μl used per sample in a 15 μl total reaction volume. Platinum pPCR supermix UDG with Rox (Carlsbad, Calif., http://www.Invitrogen.com) was used according to the manufacturer's instructions using an Applied Biosystems 7300 real time PCR system (Applied Biosystems, Warrington, UK, http://europe.appliedbiosystems.com). Each reaction contained 0.6 μM of each primer and Taqman probe (MWG). Biological and technical replicates were each performed in triplicate for each sample, standardised to the GAPDH housekeeping gene and relative expression values were calculated using the 7300 system SDS software (Applied Biosystems, Warrington, UK, http://europe.appliedbiosystems.com).
Cells were enzymatically passaged onto matrigel-coated dishes and grown for 2 weeks in defined media. After 14 days, qRT-PCR was utilised to analyse the expression of a variety of markers of pluripotency and differentiation. In the graphs in FIG. 9 the value 1 was set to the expression level of the gene in undifferentiated SA121 hESCs.
Cells were enzymatically passaged onto matrigel-coated dishes and grown for 2 weeks in defined media (1× confluent T25 tissue culture flask was passaged to 2×12 well dishes) with or without (control) compound addition. All compounds were added at 10 uM and each was performed in triplicate. Media and compounds were changed every 48 hours. After 14 days RNA was isolated and qRT-PCR was utilised to analyse the expression of NANOG and PAX6. The results are illustrated in FIGS. 13 to 17.
In the graphs in FIGS. 13, 14 15, 16 and 17 the value 1 was set relative to the expression level of the gene in the control (no compound) samples. […] This experiment allowed the effect of the EHNA-related compounds to be measured directly in comparison to EHNA. […] Those which had on effect, to these levels, on either PAX6 or NANOG were considered to have a partial-EHNA effect.

[2] = system: hESCs; assay: Directed monolayer neuronal differentiation with and without EHNA
Description: […] RNA samples were taken at various time intervals and a variety of marker gene expression was measured using qRT-PCR.
In FIGS. 11a-d, the value of 1 was set to the level of expression in undifferentiated hES cells. In FIG. 12a, the value of 1 was set to the expression level in the untreated control samples.

[3] = system: hESC line SA461; assay: hESC line transferred directly from MEF feeders to feeder-free culture without FGF, supplemented with EHNA; conditions: passage 7, 10 uM EHNA, no exogenous FGF
Description: A culture of the hESC line SA461 was transferred from a supportive MEF feeder layer directly, using manual dissection, to standard feeder free conditions in the absence of exogenous FGF but supplemented with 10 uM EHNA. A control was also grown with neither FGF nor EHNA present. Cells were subsequently passaged by the standard trypsin feeder free technique. It was determined by passage 7 that the EHNA containing cultures were almost 100% positive for POU5F1 whereas positive staining in the cultures absent for FGF and EHNA was minimal (FIG. 8).

[4] = system: hESCs (SA121); assay: Feeder-free culture of hESCs without exogenous FGF, supplemented with EHNA
Description: Cells were grown on fibronectin coated dishes. A fibronectin (Calbiochem) solution (0.1 mg/ml) (diluted in PBS) is used to coat the tissue culture dishes for 15 mins at 37 C.
The fully supportive media used to culture the stem cells was a 1:1 mixture of defined media (see below) and conditioned vitrohES. vitrohES media was conditioned for 24 hours on a layer of mitotically inactivated mouse embryonic fibroblasts plated at 4×10^5 cells/ml of conditioned media. Passaging was performed first by removing the media from the cells and washing with PBS. Trypsin (sourced from Invitrogen) was added to the cells and incubated for 1-2 mins at room temperature. Fresh media was added to neutralize the cells and then gently scraped off using a cell scraper and passaged 1 in 4 to fibronectin coated dishes.
After washing with PBS, cells were fixed in 4% paraformaldehyde (Sigma) for 10 mins at room temperature and washed again. Cells were then permeabilised in ethanol for 2 minutes. Blocking was performed in 10% Goat serum (sigma)/PBS (Invitrogen) for one hour at room temperature. The following primary antibodies (dilutions in brackets) were then incubated for 1 hour at room temperature diluted in blocking solution: mouse anti-POU5F1 (Santa cruz) (1:250), rabbit anti-PAX6 (Chemicon) (1:1000), mouse anti B-tubulin III (Sigma) (1:1000), mouse anti-Alpha-feta-protein (AFP) (Sigma) (1:400), mouse anti-muscle-specific actin (SMA) (Dako) (1:50), SSEA1 (Hybdridoma bank University of IOWA) (1:5), SSEA3 (Hybdridoma bank University of IOWA) (1:5), SSEA4 (Hybdridoma bank. University of IOWA) (1:5), Tra1-60 (Santa cruz) (1:200) and Tra1-80 (Santa Cruz) (1:200). […] All immunofluorescence was visualised and captures using Zeiss Axiovision image analysis system (http://www.ziess.com).
hESCs (SA121) were placed into standard feeder free conditions without exogenous FGF (including conditioned media made without addition of exogenous FGF) but supplemented with 10 μM EHNA. Cells were initially seeded from a trypsin passage of a standard, FGF containing, feeder free culture (passage 33 post feeder free; p100 total).
Controls were also set up without FGF or EHNA. Three lines were set up to grow independently for each condition and these were routinely passaged using trypsin as normal. Passaging was usually a 1 in 4 split approximately every 4 days.
A further culture of SA121 was transferred to standard feeder free conditions without exogenous FGF (including conditioned media made without addition of exogenous FGF) but supplemented with 10 μM EHNA. Cells were initially seeded from a trypsin passage of a standard, FGF containing, feeder free culture (passage 7 post feeder free; p 48 total).

[5] = 10 passages, immunofluorescence

Structure (SMILES): CCCCCC[C@@H]([C@@H](C)O)n1cnc2c(N)ncnc21.Cl [EHNA, erythro-9-(2-Hydroxy-3-nonyl)adenine, HCl]
- Full EHNA effect ([1]; 10 uM, NANOG at least 50% of EHNA level and PAX6 50% or less of untreated control): X
- SOX2 transcription in differentiating conditions ([1]; FIG. 9a): maintained transcription at the same level as seen in undifferentiated hESCs and the untreated samples
- stem cell marker expression (NANOG, ZFP42, POU5F1) in differentiating conditions ([1]; FIG. 9a): distinctly inhibited the down-regulation of the stem cell markers NANOG, ZFP42 and POU5F1
- induction of other differentiation markers (AFP, CD34, Brachyury, PECAM1, CDX2 and FOXA2) ([1]; data not shown): No induction of these markers
- NANOG expression in differentiating conditions ([1]; relative to untreated control): clearly maintains a higher level of NANOG than the untreated control
- PAX6 expression in differentiating conditions ([1]; HCl): inhibited the rise of PAX6 expression levels; also recorded: inhibits the onset of the differentiation marker PAX6
- cells staining positive for POU5F1 versus untreated differentiation ([2]; 4 weeks (28 days) of neuronal differentiation): At least 10 times
- PAX6 levels relative to the control differentiation ([2]; 4 weeks of differentiation (passage at 2 weeks)): > 50%
- levels of the stem cells markers NANOG and ZFP42 ([2]; 4 weeks of differentiation, versus control): considerably higher levels
- effect on PAX6 / neuronal marker expression ([2]; early neuronal differentiation, qRT-PCR, HCl): delays the onset and reduces the amount of neuronal marker expression; also recorded: delay or reduce the level of expression
- expression levels of the stem cell genes POU5F1, NANOG and ZFP42 ([2]; first 2 weeks of neuronal differentiation, qRT-PCR): maintained largely at undifferentiated levels
- cells positive for POU5F1 [3]: ~100%
- maintenance of hESCs in an undifferentiated state in the absence of FGF ([4]; 10 μM EHNA, feeder free, no exogenous FGF): can be maintained in an undifferentiated state in the absence of FGF if EHNA is present
- differentiation marker SSEA1 [4, 5]: negative
- stem-cell markers SSEA3, SSEA4, TRA-160, TRA-180 and OCT4 [4, 5]: positive
- expression of the stem cell markers NANOG and POU5F1 in the absence of FGF ([4]; FIG. 3): maintained
- ability to differentiate to all three germ layers ([4]; after at least 22 passages without FGF with EHNA): can differentiate to all three germ layers
- karyotype ([4]; passage 21, at least one replicate line): karyotypically normal
- POU5F1 staining ([4]; passage 21, immunofluorescence): all positive for POU5F1
- hESC gene expression (TLDA) ([4]; passage 30, compared with hESCs grown with FGF without EHNA): appropriate hESC gene expression
